Source: publication PMC8813873, “The HGR motif is the antiangiogenic determinant of vasoinhibin: implications for a therapeutic orally active oligopeptide” (Angiogenesis, 2021)
Like-named read-outs stand apart in the source and are kept apart here. Square brackets hold non-standard residues; d marks the D form. Ends that are not written are not given here. Peptide text beside a SMILES is read from it.

Assays:
HUVEC [1] = conditions: for Span: span of fitted dose-response curve, VEGF + bFGF-induced HUVEC proliferation relative to lowest and highest dose of CRIVi45-51
Description: HUVEC were seeded at 14,000 cells cm^−2 in a 96-well plate and, after 24 h, starved with 0.5% FBS for 12 h. The medium was refreshed with 20% FBS-F12K and incubated with 100 μg mL^−1 heparin together with 25 ng mL^−1 VEGF and 20 ng mL^−1 bFGF for 24 h in combination with a single dose (100 nM) or different concentrations of PRL, vasoinhibin, or synthetic oligopeptides. DNA synthesis was quantified by the DNA incorporation of the thymidine analog 5-ethynyl-2’-deoxyuridine (EdU, Sigma) labeled by the click reaction with fluorescent Azide Fluor 545 (Sigma-Aldrich) as reported.
Endothelial cell proliferation. BUVEC-E6E7 cells seeded at 14,000 cells cm^-2 in a 96-well plate were starved with 0.1% FBS for 24 h and treated or not with VEGF (50 ng mL^-1) in starvation medium with or without different concentrations of five peptides synthesized along the 45 to 58 residue sequence of human PRL or with recombinant vasoinhibin of 123 amino acids (positive control). HUVEC cells were seeded at 14,000 cells cm^-2 in a 96-well plate for 24 h and starved with 0.5% FBS for 12 h. Medium was then replaced by 20% FBS-F12K and 100 μg mL^-1 heparin containing or not VEGF (25 ng mL^-1), bFGF (20 ng mL^-1), IL-1b (10 ng mL^-1), or BK (10 μM) or a combination of 25 ng mL^-1 of VEGF and 20 ng mL^-1 of bFGF for 24 h in the presence or absence of a single dose (100 nM) or different doses of PRL (negative control), recombinant vasoinhibin, Vi45-51, synthetic peptides having the same residue composition as the 45-51 segment but in scrambled order (negative control), Vi45-51 subjected to alanine scanning mutagenesis, a tripeptide comprising residues 46 to 48 of vasoinhibin (Vi46-48), a Vi45-51 where G47 was deleted (des-G^47), a conserved version of the Vi45-51 (cVi45-51) and the QGR tripeptide, heptapeptides comprising residues 39 to 45 of growth hormone (GH39-45) or placental lactogen (PL39-45), tripeptides EQK and QKY, the dipeptide QK (Table S2), alanine mutants of the vasoinhibin with 123 residues (Vi-H46A, Vi-R48A, Vi-H46A/R48A), alanine mutants of PRL (PRL-E161A, PRL-E162A, PRL-E161A/E162A), CRIVi45-51, antiangiogenic proteins (endostatin, angiostatin), antiangiogenic oligopeptides (anginex, cilengitide), or antiangiogenic tyrosine-kinase inhibitors (pazopanib, sunitinib, sorafenib). DNA synthesis was quantified by the DNA incorporation of the thymidine analogue 5-ethynyl-2’-deoxyuridine (EdU, Sigma) added at the time of treatments and labelled by the click reaction with fluorescent Azide Fluor 545 (Sigma-Aldrich) as reported. Images were obtained in a fluorescent inverted microscope (Olympus IX51, Japan) and quantified using the CellProfiler software. The number of EdU-positive cells over total DNA (Hoechst)-stained cells was expressed as percentage proliferation. B16-F10 cells and HUVEC were seeded at 12,600 cells cm^-2 and 7,400 cells cm^-2, respectively, in a 24-well plate and incubated for different times in complete medium in the absence or presence of 100 nM CRIVi45-51 added every 24 h. Cells were trypsinized and counted.

[2] = Heat treatment, residual antiproliferative activity; assay type: physicochemical; conditions: 2 μM solution, 97 °C, 15 min; read-out inhibition of VEGF + bFGF-induced HUVEC proliferation at 10 nM, n = 9
B16-F10 melanoma tumors = test: B16-F10 melanoma tumor model; assay type: in vivo; conditions: C57BL6 mice
Description: The mouse model of primary tumor development based on the use of B16-F10 melanoma cells was used as previously reported. Briefly, anesthetized female C57BL6 mice (8–12 weeks-old) were inoculated into their right flank with 10^5 B16-F10 cells. Five days after tumor cell inoculation, mice were treated daily with vehicle (NS) or CRIVi45–51 injected into the lateral tail vein or via intragastric gavage for the 8 d following tumor cell injection. Animals were then euthanized by cervical dislocation and the tumors weighted and processed to evaluate blood vessels by immunofluorescence or RT-qPCR.
Tumor model. Female C57BL6 mice (8-12 weeks-old) under 2.5% isoflurane anesthesia (SomnoSuite system, Kent Scientific, Torrington, CT) were inoculated into their right flank with 10^5 B16-F10 cells in 50 μL PBS. Tumor length and width were measured daily, and volume was estimated by the formula: Volume = (length x width^2) x 0.5. Five days after tumor cell inoculation, mice were injected daily into the lateral tail vein with vehicle (normal saline) or 0.1 or 1.0 mg kg^-1 CRIVi45-51, and tumor volumes were assessed daily for the following 8 d. In other experiments, 1.0 mg kg^-1 CRIVi45-51 or vehicle was delivered daily intragastrically through a 20G x 1.5’’ curved metal gavage canula (Cadence Science, Staunton, VA) for the 8 d following tumor cell injection. Animals were then euthanized by cervical dislocation and the tumors processed or frozen to evaluate blood vessels by immunofluorescence or RT-qPCR, respectively. […] Tumor sections were cover-slipped with Vectashield H-1000 (Vector Laboratories) and digitalized at 20X and 40X magnification under a fluorescence microscope (Olympus BX60). The number of vessels per tumor area measured vascular density. CD-31 and VE-Cad mRNA levels were quantified by RT-qPCR following the method already described in the retinal angiogenesis assay section.

B16-F10 cells = test: B16-F10 cell growth in vitro (cell counting); assay type: cell-based, mouse; conditions: 100 nM added every 24 h, cell density over time, n = 9
Description: (§1) Endothelial cell proliferation. BUVEC-E6E7 cells seeded at 14,000 cells cm^-2 in a 96-well plate were starved with 0.1% FBS for 24 h and treated or not with VEGF (50 ng mL^-1) in starvation medium with or without different concentrations of five peptides synthesized along the 45 to 58 residue sequence of human PRL or with recombinant vasoinhibin of 123 amino acids (positive control). HUVEC cells were seeded at 14,000 cells cm^-2 in a 96-well plate for 24 h and starved with 0.5% FBS for 12 h. […] DNA synthesis was quantified by the DNA incorporation of the thymidine analogue 5-ethynyl-2’-deoxyuridine (EdU, Sigma) added at the time of treatments and labelled by the click reaction with fluorescent Azide Fluor 545 (Sigma-Aldrich) as reported. Images were obtained in a fluorescent inverted microscope (Olympus IX51, Japan) and quantified using the CellProfiler software. The number of EdU-positive cells over total DNA (Hoechst)-stained cells was expressed as percentage proliferation. […] Cells were trypsinized and counted.

HUVEC [3] = test: HUVEC cell density over time (cell counting); assay type: cell-based, human; conditions: 100 nM added every 24 h, complete medium, n = 9
Description: as §1

pepsin = pepsin (Sus scrofa, UniProt P00791); test: Pepsin digestion, residual antiproliferative activity; conditions: 4 μM, 1:20 protease to substrate molar ratio, 40 mM HCl, 37 °C, 5 h; read-out inhibition of VEGF + bFGF-induced HUVEC proliferation at 10 nM, n = 9
[4] = VEGF 25 ng/mL + bFGF 20 ng/mL-induced HUVEC proliferation, 24 h, EdU incorporation, non-linear best fit, n = 9

pepsin, sequence (P00791 60-385): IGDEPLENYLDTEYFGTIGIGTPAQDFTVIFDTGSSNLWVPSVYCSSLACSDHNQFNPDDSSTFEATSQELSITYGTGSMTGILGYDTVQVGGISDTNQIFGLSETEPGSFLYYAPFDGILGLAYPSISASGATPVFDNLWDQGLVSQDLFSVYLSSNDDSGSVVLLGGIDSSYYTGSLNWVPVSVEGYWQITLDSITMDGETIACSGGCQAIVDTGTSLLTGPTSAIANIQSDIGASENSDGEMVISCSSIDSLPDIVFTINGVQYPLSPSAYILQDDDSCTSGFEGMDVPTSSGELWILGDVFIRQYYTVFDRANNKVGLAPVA

CC[C@@H](C)[C@H]1NC(=O)[C@@H]([C@H](C)O)NC(=O)[C@@H](Cc2c[nH]cn2)NC(=O)CNC(=O)[C@@H](CCCNC(=N)N)NC(=O)CNC(=O)[C@@H](Cc2ccccc2)NC1=O [CRIVi45–51, cyclic-retro-inverse-vasoinhibin-(45–51)-peptide] (cyclo([dI][dF]G[dR]G[dH][dT]))
fold lower IC50 than other antiangiogenic proteins (endostatin and angiostatin) and peptides (anginex and cilengitide) (HUVEC [1]; ratio of IC50 values, VEGF + bFGF-induced HUVEC proliferation): 2.7- to 214 fold | Span (HUVEC [1]; non-linear best fit, n = 9): 86.86% | activity after heat inactivation [2]: retained full activity | tumor growth, oral administration (B16-F10 melanoma tumors; B16-F10, 1.0 mg/kg daily intragastric gavage, 8 d, n = 9): decreased tumor growth with similar efficacy to intravenous delivery | tumor growth, intravenous (B16-F10 melanoma tumors; B16-F10, daily i.v. 0.1 or 1.0 mg/kg for 8 d from day 5, n = 9): reduced tumor growth in a dose-related manner | tumor vascular density and expression of CD31 (B16-F10 melanoma tumors; B16-F10 tumors, daily i.v., n = 9): reduce | growth of melanoma cells in vitro (B16-F10 cells): did not inhibit | HUVEC cell density over time (HUVEC [3]): reduces proliferation | resistance to pepsin degradation (pepsin): resistant

ANIKLSVQMKLFKRHLKWKIIVKLNDGRELSLD [Anginex, reference compound]
Span (HUVEC [1]; non-linear best fit, n = 9): 73.13%

Endostatin
IC50 (HUVEC [1]; [4]): 31.2 nM | Span (HUVEC [1]; non-linear best fit, n = 9): 49.98%

Ac-THGRGFI-NH2 [Vi45–51, vasoinhibin-(45-51)-peptide]
IC50 (HUVEC [1]; 24 h): ~0.15 nM

Cc1ccc(Nc2nccc(N(C)c3ccc4c(C)n(C)nc4c3)n2)cc1S(N)(=O)=O [Pazopanib, reference compound]
Span (HUVEC [1]; non-linear best fit, n = 9): 83.73%

CCN(CC)CCNC(=O)c1c(C)[nH]c(/C=C2\C(=O)Nc3ccc(F)cc32)c1C [Sunitinib, reference compound]
Span (HUVEC [1]; non-linear best fit, n = 9): 93.64%

Angiostatin
IC50 (HUVEC [1]; [4]): 0.388 nM | Span (HUVEC [1]; non-linear best fit, n = 9): 68.47%

CNC(=O)c1cc(Oc2ccc(NC(=O)Nc3ccc(Cl)c(C(F)(F)F)c3)cc2)ccn1 [Sorafenib, reference compound]
Span (HUVEC [1]; non-linear best fit, n = 9): 106.00%

B1: PRL: Recombinant human prolactin (protein, UniProt P01236 29-227, looked up)
Prolactin: LPICPGGAARCQVTLRDLFDRAVVLSHYIHNLSSEMFSEFDKRYTHGRGFITKAINSCHTSSLATPEDKEQAQQMNQKDFLSLIVSILRSWNEPLYHLVTEVRGMQEAPEAILSKAVEIEEQTKRLLEGMELIVSQVHPETKENEIYPVWSGLPSLQMADEESRLSAYYNLLHCLRRDSHKIDNYLKLLKCRIIHNNNC
dose-response inhibition of VEGF + bFGF-induced HUVEC proliferation (result in words) (HUVEC [1]; VEGF 25 ng/mL + bFGF 20 ng/mL, 24 h, EdU, n = 9): not antiangiogenic
